Measurements reported in article PMC9028786, “The Ribosome Is the Ultimate Receptor for Trypsin Modulating Oostatic Factor (TMOF)” (Biomolecules, 2022).
Like-named read-outs stand apart in the source and are kept apart here. Ends that are not written are not given here.

What was measured:
[1] = tested on: trypsin mRNA in the gut epithelial cells; conditions: gut epithelial cells of Ae. aegypti and Neobellieria bullata; cited from earlier work
Excerpt: (§1) Several of these ABC transporters with 80–100% similarity with the AeaTMOF receptor are also found in several Aedes, Anopheles, and ...

[2] = tested on: E. coli CGSC strain7636 cells expressing SbmA^+; assay: Growth/viability of E. coli CGSC strain7636 expressing SbmA; format: cell-based, Escherichia coli; conditions: 3 and 10 mM peptide, 37 °C, 18 h, p < 0.05 vs control; for E. coli growth: 630 nm; for Viable colonies at end of incubation: initial 2.7 × 10^4 cells, LB medium, plated on LB agar, triplicates
Protocol: (§2) We aimed to find out if AeaTMOF can also stop bacterial growth as, was shown for the proline-rich Oncocin112 that binds to the bacterial ribosome, stopping protein translation, bacterial growth, and causing bacterial death. E. coli CGSC strain7636 (2.7 × 10^4 cells) SbmA^+, expressing the proline-rich peptides importer SbmA, were incubated in 96-well plate containing 100 μL/well of LB medium, 0.4 mM of IPTG, 0.1 mM of ampicillin, and different concentrations of AeaTMOF and Oncocin112 (1–13) (3 mM and 10 mM) in different wells. The 96-well plate was incubated at 37 °C for 18 h and bacterial growth was followed at 630 nm using Biotech ElX808 absorbance microplate reader. Control wells contained bacterial cells growing without AeaTMOF or oncocin112 (1–13). […] After the incubations in the presence of Oncocin112 (1–13) or AeaTMOF of 10 mM and 3 mM, aliquots (0.5 μL) were removed from each well and spread on LB agar plates containing 0.1 mM of ampicillin, and the plates were incubated overnight at 37 °C and viable colonies were counted. Incubations were done in triplicates and the experiments were repeated twice. Results are expressed as means of three determinations ± SEM.

[3] = tested on: bacterial 70 S ribosome; assay: Inhibition of luciferase translation in E. coli S30 extract; format: biochemical, Escherichia coli; conditions: for Inhibition of luciferase biosynthesis at lowest concentration: AeaTMOF at 0.001 μM, Oncocin112 (1–13) at 0.01 μM; for IC50: E. coli S30 lysate, pBestluc DNA, peptide 0.001 to 750 μM, luminescence read-out, mean of three determinations, read-out: IC50, inhibition of luciferase biosynthesis (luminescence)
Protocol: To test the effect of AeaTMOF and Oncocin112 (1–13) on the translation of Luciferase by the bacterial 70 S ribosome, an E. coli S30 lysate extract system for circular DNA (Promega) containing a plasmid pBestluc DNA vector (4486 bp) (1 mg/mL) 0.3 μL, amino acid mixture without methionine (1 mM) 1.25 μL, amino acid mixture without Leucine (1 mM) 1.25 μL, S30 premix (including ribosomes) without amino acids 5 μL, S30 extract circular 3.5 μL, RNasin (8 U, 112 ng) 0.2 μL, different concentrations of AeaTMOF or Oncocin112 (1–13) (0.001 μM to 1000 μM), and nuclease-free water to a volume of 12.5 μL were incubated for 2 h at 37 °C. […] After incubation, 87.5 μL of GLO lysis buffer (Promega) containing beetle luciferin was added, mixed, and aliquots (5 μL) were removed, and their luminescence read in a GLOMAX multidetector system. […] The decrease in luminescence (% ± SEM) in the presence of increasing log AeaTMOF or Oncocin112 (1–13) concentrations was then plotted using GrapPad Prism 3.

[4] = tested on: E. coli mutant cells CGSC strain 8547 SbmA^- expressing only ABC-tmfA importer; assay: Growth/viability of E. coli mutant CGSC strain 8547 SbmA^- expressing ABC-tmfA importer; format: cell-based, Escherichia coli; conditions: for E. coli growth: SbmA^- cells expressing ABC-tmfA importer, 3 and 10 mM peptide, 37 °C, 18 h, 630 nm, p < 0.05 for inhibition; for E. coli cell growth (discussion): cells that only expressed ABCtmfA receptor/importer, up to 10 mM; for Importer used: inferred from growth of SbmA^+ and SbmA^- ABC-tmfA E. coli, 3 and 10 mM
Protocol: E. coli CGSC strain […] lacking the SbmA importer expressing the ABCtmfA receptor/importer was prepared using plasmid pTAC-MAT-2 ABCtmfA importer/receptor as described earlier. [3,4,5 ^3H]Leucine 250 μCi, Spc Act 100–150 Ci/mmol was purchased from Perkin Elmer (Waltham, MA, USA). AeaTMOF-FITC (H-YDPAPPPPPPK(FITC)K-OH) was synthesized at the University of Colorado Anschutz School of Medicine protein core. AeaTMOF-FITC was purified by HPLC showing a single peak, and mass spectrometry analysis of the peak identified the 3 expected ions at 455.7, 607.3, and 910.3, showing an expected Mr 1019.56 as was described earlier. Synthetic AeaTMOF (H-YDPAPPPPPP-OH) and a short Oncocin112(1–13) (H-VDKPPYLPRPRPP-OH), a 13 amino acids oncocin112 peptide, 6 amino acids shorter than the original oncocin112 of 19 amino acids, were synthesized and purified by HPLC [16]. After HPLC purifications of AeaTMOF, oncocin112 (1–13), and AeaTMOF-FITC, the TFA ions were exchanged with phosphate ions.
as §2

[5] = tested on: luciferase; assay: Effect on activity of pre-synthesized luciferase; format: biochemical, Beetle; conditions: results not shown
Protocol: Incubations of E. coli S30 extract synthesizing Beetle luciferase in the presence of an increasing concentration of AeaTMOF (0.001 to 750 μM) stopped the biosynthesis of luciferase, diminishing its activity on Beetle luciferin as measured in luminescence units. The activity of the in vitro synthesized luciferase on Beetle luciferin at very low concentration of AeaTMOF (0.001 μM) was similar to luciferase activity without AeaTMOF, and this luminescence was used to calculate the decrease in luminescence (%) after incubation with increasing concentrations of AeaTMOF (Figure 1A). Higher concentrations of AeaTMOF (higher than 0.001 μM) caused a linear decrease in the synthesis of luciferase and a decline in luminescence (%) reaching IC50 (inhibition concentration of 50%) at 1 μM (Figure 1A). […] AeaTMOF is not an inhibitor of luciferase.

[6] = tested on: late trypsin transcript in the gut epithelial cells; conditions: circulating in hemolymph of females after the blood meal; cited from earlier work
Excerpt: (§3) Aedes aegypti Trypsin Modulating Oostatic Factor (AeaTMOF), a proline-rich peptide (YDPAPPPPPP), was originally isolated from the ovaries of female Ae. aegypti. AeaTMOF controls the biosynthesis of trypsin-like enzymes in the midgut epithelial cells of several species of mosquito including Aedes. aegypti, Culex quinquefasciatus, Culex. nigripalpus, and Anopheles albimanus. […] AeaTMOF was also ...

[7] = tested on: late trypsin transcript; conditions: cited from earlier work
Excerpt: as §3

[8] = tested on: Ae. aegypti larvae; conditions: fed AeaTMOF expressed by engineered Chlorella desiccate, Saccharomyces cerevisiae, and Pichia pastoris; cited from earlier work
Excerpt: as §1

[9] = tested on: ABC-tmfA transporter (accession number MK895491); conditions: cited from earlier work
Excerpt: as §1

[10] = tested on: S. frugiperda 80S ribosomes; assay: Inhibition of larval Ae. aegypti late trypsin translation in TnT T7 insect cell extract; format: biochemical, Spodoptera frugiperda; conditions: TnT T7 insect cell extract from S. frugiperda Sf21, pFA25A ICE T7 flexi-late larval trypsin, [3H]leucine, 30 °C, 4 h, AeaTMOF 0.01–750 μM; mean of three determinations; linear regression; read-out: IC50, inhibition of Ae. aegypti late larval [3H]trypsin biosynthesis
[11] = tested on: female mosquitoes; conditions: injection after blood meal; cited from earlier work

Substance	Effect on translation of trypsin mRNA [1]	E. coli growth [2]	Viable colonies at end of incubation [2]	Inhibition of luciferase biosynthesis at lowest concentration ([3]; 2 h at 37 °C)	IC50 ([3]; 2 h at 37 °C) [µM]	IC50 increase compared with AeaTMOF ([3]; IC50 2 μM versus AeaTMOF)	E. coli growth [4]	E. coli cell growth (discussion) [4]	Importer used [4]	Effect on Beetle luciferase biosynthesis versus activity [5]	Effect on translation of late trypsin transcript [6]	Inhibition of translation of late trypsin transcript ([7]; AeaTMOF expressed on coat protein of Tobacco Mosaic Virus, fed to insects)	Inhibition of translation of late trypsin transcript [7]	Effect on larvae [8]	Binding to gut receptor/importer [9]	Concentration of complete inhibition of luciferase biosynthesis ([3]; E. coli S30 extract, 2 h at 37 °C, luminescence) [µM]	IC50 [10] [µM]	Effect on activity of luciferase synthesized in vitro ([5]; S30 extract with pBESTluc for 4 h without peptide, then AeaTMOF 1 to 100 μM added)	Effect on blood-fed female mosquitoes [11]
NPTNLH [NebTMOF, NPTNLH, trypsin modulating oostatic factor of Neobellieria bullata, reference compound]	stop the translation of trypsin mRNA	–	–	–	–	–	–	–	–	–	–	–	–	–	–	–	–	–	–
VDKPPYLPRPRPP [Oncocin112 (1–13), reference compound]	–	significantly inhibited the growth of the E. coli cells	4–10 colonies	do not inhibit the biosynthesis of luciferase	2	twofold increase	grew at the same rate	did not affect the cell growth, even at high concentrations of 10 mM	can only use the bacterial natural importer SbmA	inhibits Beetle luciferase biosynthesis and not its activity	–	–	–	–	–	–	–	–	–
YDPAPPPPPP [AeaTMOF]	stop the translation of trypsin mRNA	significantly inhibited the growth of the E. coli cells	4–10 colonies	do not inhibit the biosynthesis of luciferase	1	–	significantly (p < 0.05) inhibited	inhibiting protein synthesis and cell growth	can use the mosquito ABCtmfA importer, as well as the bacterial SbmA importer	–	affects the translation of the late trypsin transcript in the gut epithelial cells	stopped the translation of the trypsin transcript in the gut epithelial cells	inhibit the translation of the late trypsin transcript	stopped larval trypsin biosynthesis and caused larval starvation and death	binds a gut-specific receptor ABC-tmfA transporter	250 to 750	1.8	did not affect the activity of luciferase	only inhibits trypsin biosynthesis, and as a result the blood meal is not digested and egg development is inhibited, making the female mosquitoes sterile but not killing them
